Measurements from PubChem BioAssay (NCI).
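Growth conditions: 96-well plates. Treatment: test compound, 48 hours, 5 concentrations. Analysis: linear interpolation between bracketing concentrations; unreached endpoints set to highest concentration. TGI: total growth inhibition.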

Columns and labels:
Assay in all cases: NCI tumour cell line growth inhibition, 48 h
NCI-H460 lung = system: NCI-H460 lung
DLD-1 colon = system: DLD-1 colon
OVCAR-5 ovarian = system: OVCAR-5 ovarian
SF-539 CNS = system: SF-539 CNS
A549 NSCLC = system: A549 NSCLC
SK-MEL-5 melanoma = system: SK-MEL-5 melanoma
SNB-78 CNS = system: SNB-78 CNS
SW-620 colon = system: SW-620 colon
SNB-75 CNS = system: SNB-75 CNS
MALME-3M melanoma = system: MALME-3M melanoma
EKVX NSCLC = system: EKVX NSCLC
UACC-62 melanoma = system: UACC-62 melanoma
DMS 273 small cell lung = system: DMS 273 small cell lung
SN12C renal = system: SN12C renal
HCC-2998 colon = system: HCC-2998 colon
HCT-116 colon = system: HCT-116 colon
HT29 colon = system: HT29 colon
HOP-62 NSCLC = system: HOP-62 NSCLC
HL-60(TB) leukemia = system: HL-60(TB) leukemia
SF-295 CNS = system: SF-295 CNS
RXF-631 renal = system: RXF-631 renal
RPMI-8226 leukemia = system: RPMI-8226 leukemia
NCI-H226 lung = system: NCI-H226 lung
SF-268 CNS = system: SF-268 CNS
KM20L2 colon = system: KM20L2 colon
UACC-257 melanoma = system: UACC-257 melanoma
NCI-H522 lung = system: NCI-H522 lung
U251 CNS = system: U251 CNS
KM12 colon = system: KM12 colon
UO-31 renal = system: UO-31 renal
LXFL 529 NSCLC = system: LXFL 529 NSCLC
M14 melanoma = system: M14 melanoma
HOP-18 NSCLC = system: HOP-18 NSCLC
DMS 114 small cell lung = system: DMS 114 small cell lung
OVCAR-8 ovarian = system: OVCAR-8 ovarian
CAKI-1 renal = system: CAKI-1 renal
HCT-15 colon = system: HCT-15 colon
OVCAR-3 ovarian = system: OVCAR-3 ovarian
HOP-92 NSCLC = system: HOP-92 NSCLC
SNB-19 CNS = system: SNB-19 CNS
SK-OV-3 ovarian = system: SK-OV-3 ovarian
OVCAR-4 ovarian = system: OVCAR-4 ovarian
ACHN renal = system: ACHN renal
M19-MEL melanoma = system: M19-MEL melanoma
A498 renal = system: A498 renal
IGROV1 ovarian = system: IGROV1 ovarian
CCRF-CEM leukemia = system: CCRF-CEM leukemia
TK-10 renal = system: TK-10 renal
K-562 leukemia = system: K-562 leukemia
786-0 renal = system: 786-0 renal
NCI-H23 lung = system: NCI-H23 lung
COLO 205 colon = system: COLO 205 colon
MOLT-4 leukemia = system: MOLT-4 leukemia
RXF 393 renal = system: RXF 393 renal
LOX IMVI melanoma = system: LOX IMVI melanoma
XF 498 CNS = system: XF 498 CNS
SK-MEL-28 melanoma = system: SK-MEL-28 melanoma
SK-MEL-2 melanoma = system: SK-MEL-2 melanoma
SR leukemia = system: SR leukemia

`O=C(/C=C/c1ccccc1)c1ccc(Cl)cc1Cl` gave a TGI (NCI-H460 lung) of 33.4 µM, a TGI (DLD-1 colon) of 33.3 µM and a TGI (OVCAR-5 ovarian) of 39.5 µM. It also gave a TGI (SF-539 CNS) of 37.9 µM, a TGI (A549 NSCLC) of 60.3 µM and a TGI (SK-MEL-5 melanoma) of 31.4 µM. For the same compound, the TGI (SNB-78 CNS) was 49.3 µM, the TGI (SW-620 colon) was 17.9 µM and the TGI (SNB-75 CNS) was 92.7 µM. It also gave a TGI (MALME-3M melanoma) of 46.1 µM, a TGI (EKVX NSCLC) of 62.3 µM and a TGI (UACC-62 melanoma) of 30 µM. It also gave a TGI (DMS 273 small cell lung) of 34 µM, a TGI (SN12C renal) of 57.7 µM and a TGI (HCC-2998 colon) of 40.9 µM. The TGI (HCT-116 colon) was 24 µM, the TGI (HT29 colon) was 32.9 µM and the TGI (HOP-62 NSCLC) was > 100 µM. The TGI (HL-60(TB) leukemia) was 36.2 µM, the TGI (SF-295 CNS) was 41.2 µM and the TGI (RXF-631 renal) was > 100 µM. It also gave a TGI (RPMI-8226 leukemia) of 28.4 µM, a TGI (NCI-H226 lung) of 89.9 µM and a TGI (SF-268 CNS) of 59.8 µM. The TGI (KM20L2 colon) was 45.7 µM, the TGI (UACC-257 melanoma) was 63.8 µM and the TGI (NCI-H522 lung) was 28.3 µM. For the same compound, the TGI (U251 CNS) was 34.6 µM, the TGI (KM12 colon) was 34.2 µM and the TGI (UO-31 renal) was > 100 µM. It also gave a TGI (LXFL 529 NSCLC) of 31.1 µM, a TGI (M14 melanoma) of 45.3 µM and a TGI (HOP-18 NSCLC) of 60.5 µM. For the same compound, the TGI (DMS 114 small cell lung) was 33.3 µM, the TGI (OVCAR-8 ovarian) was 28.4 µM and the TGI (CAKI-1 renal) was 64 µM. For the same compound, the TGI (HCT-15 colon) was 26.4 µM, the TGI (OVCAR-3 ovarian) was 40.2 µM and the TGI (HOP-92 NSCLC) was 69.3 µM. For the same compound, the TGI (SNB-19 CNS) was 65.2 µM, the TGI (SK-OV-3 ovarian) was 85.3 µM and the TGI (OVCAR-4 ovarian) was 46.1 µM. For the same compound, the TGI (ACHN renal) was 34.1 µM, the TGI (M19-MEL melanoma) was 44.5 µM and the TGI (A498 renal) was 50.6 µM. The TGI (IGROV1 ovarian) was 40.5 µM, the TGI (CCRF-CEM leukemia) was 33.1 µM and the TGI (TK-10 renal) was > 100 µM. For the same compound, the TGI (K-562 leukemia) was 30.1 µM, the TGI (786-0 renal) was 33.2 µM and the TGI (NCI-H23 lung) was 75.8 µM. It also gave a TGI (COLO 205 colon) of 37.2 µM and a TGI (MOLT-4 leukemia) of 42.9 µM.
For `COC(=O)C(=O)C(C(=O)C(=O)Nc1ccc([N+](=O)[O-])cc1)c1nc2ccccc2[nH]c1=O` (stereo not given), the TGI (NCI-H460 lung) was > 100 µM, the TGI (DLD-1 colon) was > 100 µM and the TGI (A549 NSCLC) was > 100 µM. The TGI (SK-MEL-5 melanoma) was > 100 µM, the TGI (SW-620 colon) was > 100 µM and the TGI (RXF 393 renal) was > 100 µM. For the same compound, the TGI (SNB-75 CNS) was > 100 µM, the TGI (LOX IMVI melanoma) was > 100 µM and the TGI (MALME-3M melanoma) was > 100 µM. The TGI (UACC-62 melanoma) was > 100 µM, the TGI (DMS 273 small cell lung) was > 100 µM and the TGI (SN12C renal) was > 100 µM. For the same compound, the TGI (HCT-116 colon) was > 100 µM, the TGI (HT29 colon) was > 100 µM and the TGI (HOP-62 NSCLC) was > 100 µM. For the same compound, the TGI (HL-60(TB) leukemia) was > 100 µM, the TGI (RXF-631 renal) was > 100 µM and the TGI (RPMI-8226 leukemia) was > 100 µM. For the same compound, the TGI (NCI-H226 lung) was > 100 µM, the TGI (SF-268 CNS) was > 100 µM and the TGI (KM20L2 colon) was > 100 µM. The TGI (UACC-257 melanoma) was > 100 µM, the TGI (NCI-H522 lung) was > 100 µM and the TGI (U251 CNS) was > 100 µM. For the same compound, the TGI (KM12 colon) was > 100 µM, the TGI (XF 498 CNS) was > 100 µM and the TGI (SK-MEL-28 melanoma) was > 100 µM. The TGI (UO-31 renal) was > 100 µM, the TGI (LXFL 529 NSCLC) was > 100 µM and the TGI (M14 melanoma) was > 100 µM. The TGI (HOP-18 NSCLC) was > 100 µM, the TGI (DMS 114 small cell lung) was > 100 µM and the TGI (OVCAR-8 ovarian) was > 100 µM. The TGI (CAKI-1 renal) was > 100 µM, the TGI (HCT-15 colon) was > 100 µM and the TGI (OVCAR-3 ovarian) was > 100 µM. For the same compound, the TGI (HOP-92 NSCLC) was > 100 µM, the TGI (SK-MEL-2 melanoma) was > 100 µM and the TGI (SNB-19 CNS) was > 100 µM. The TGI (SK-OV-3 ovarian) was > 100 µM, the TGI (OVCAR-4 ovarian) was > 100 µM and the TGI (ACHN renal) was > 100 µM. The TGI (M19-MEL melanoma) was > 100 µM, the TGI (A498 renal) was > 100 µM and the TGI (IGROV1 ovarian) was > 100 µM. The TGI (CCRF-CEM leukemia) was > 100 µM, the TGI (TK-10 renal) was > 100 µM and the TGI (K-562 leukemia) was > 100 µM. For the same compound, the TGI (786-0 renal) was > 100 µM, the TGI (NCI-H23 lung) was > 100 µM and the TGI (COLO 205 colon) was > 100 µM. The TGI (MOLT-4 leukemia) was > 100 µM.
`CN1NC(c2ccc(Cl)cc2)=C(C#N)C(=O)CC1c1ccccc1` (stereo not given) was tested, and the TGI (NCI-H460 lung) was > 100 µM, the TGI (DLD-1 colon) was > 100 µM and the TGI (OVCAR-5 ovarian) was > 100 µM. The TGI (A549 NSCLC) was > 100 µM, the TGI (SK-MEL-5 melanoma) was > 100 µM and the TGI (SW-620 colon) was > 100 µM. For the same compound, the TGI (RXF 393 renal) was > 100 µM, the TGI (SNB-75 CNS) was > 100 µM and the TGI (LOX IMVI melanoma) was > 100 µM. The TGI (DMS 273 small cell lung) was > 100 µM, the TGI (SR leukemia) was > 100 µM and the TGI (HCT-116 colon) was > 100 µM. For the same compound, the TGI (HT29 colon) was > 100 µM, the TGI (HL-60(TB) leukemia) was > 100 µM and the TGI (SF-295 CNS) was > 100 µM. The TGI (RXF-631 renal) was > 100 µM, the TGI (RPMI-8226 leukemia) was > 100 µM and the TGI (SF-268 CNS) was > 100 µM. The TGI (KM20L2 colon) was > 100 µM, the TGI (UACC-257 melanoma) was > 100 µM and the TGI (NCI-H522 lung) was > 100 µM. The TGI (U251 CNS) was > 100 µM, the TGI (KM12 colon) was > 100 µM and the TGI (SK-MEL-28 melanoma) was > 100 µM. For the same compound, the TGI (LXFL 529 NSCLC) was > 100 µM, the TGI (HOP-18 NSCLC) was > 100 µM and the TGI (DMS 114 small cell lung) was > 100 µM. The TGI (CAKI-1 renal) was > 100 µM, the TGI (HCT-15 colon) was > 100 µM and the TGI (HOP-92 NSCLC) was > 100 µM. For the same compound, the TGI (SK-MEL-2 melanoma) was > 100 µM, the TGI (SNB-19 CNS) was > 100 µM and the TGI (SK-OV-3 ovarian) was > 100 µM. For the same compound, the TGI (OVCAR-4 ovarian) was > 100 µM, the TGI (ACHN renal) was > 100 µM and the TGI (A498 renal) was > 100 µM. For the same compound, the TGI (TK-10 renal) was > 100 µM, the TGI (786-0 renal) was > 100 µM and the TGI (NCI-H23 lung) was > 100 µM. For the same compound, the TGI (COLO 205 colon) was > 100 µM.
